Test systems include A549 NSCLC; HOP-62 NSCLC; LOX IMVI melanoma; MCF7 breast; NCI/ADR-RES ovarian; OVCAR-5 ovarian; SF-268 CNS; SK-MEL-2 melanoma; SK-OV-3 ovarian; SR leukemia.
Holding throughout (assay): NCI-60 cell line screen, 48 h

Each structure is given as a SMILES string.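 Briefly, cells in 96-well plates were exposed to five compound concentrations for 48 h, and endpoints were estimated by linear interpolation. Here, GI50 denotes the concentration required for 50% inhibition of growth. Definition used: TGI = concentration required for complete inhibition of growth.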

As for `O=c1c(Cl)nnc2sc3ccccc3n12`, the GI50 in the assay on A549 NSCLC is 39.7 µM; in the assay with HOP-62 NSCLC, 67.4 µM; in the assay with LOX IMVI melanoma it was 30.5 µM; in the assay with MCF7 breast, 33.6 µM; in the assay with NCI/ADR-RES ovarian, 13.3 µM; in the assay with OVCAR-5 ovarian, 54.1 µM. The GI50 was 51.1 µM in the assay with SF-268 CNS, over 100 µM in the assay on SK-MEL-2 melanoma, 59.9 µM in the assay with SK-OV-3 ovarian and 13.1 µM with SR leukemia. Also, the TGI was over 100 µM in the assay with A549 NSCLC; over 100 µM with HOP-62 NSCLC; 64.5 µM in the assay on LOX IMVI melanoma; over 100 µM with MCF7 breast; 41.9 µM in the assay on NCI/ADR-RES ovarian; over 100 µM in the assay on OVCAR-5 ovarian. In addition, the TGI in the assay with SF-268 CNS, in the assay with SK-MEL-2 melanoma, in the assay on SK-OV-3 ovarian and with SR leukemia was over 100 µM throughout.
As to `O=C1CC(=O)N(C2CCCCC2)C(=O)N1c1ccccc1S(=O)(=O)Oc1ccccc1`, the TGI in the assay with A549 NSCLC was over 100 µM; in the assay with HOP-62 NSCLC, over 100 µM; in the assay with LOX IMVI melanoma, 7.69 µM; with MCF7 breast, over 100 µM; in the assay with NCI/ADR-RES ovarian, over 100 µM; in the assay on OVCAR-5 ovarian, over 100 µM. For the same compound, the TGI in the assay on SF-268 CNS, in the assay with SK-MEL-2 melanoma, with SK-OV-3 ovarian and in the assay on SR leukemia was over 100 µM each time.
Regarding `C[C@@H](c1ccc2nccn2c1)n1nnc2ncc(-c3cnn(C)c3)nc21`, the GI50 with A549 NSCLC, in the assay with HOP-62 NSCLC, in the assay with LOX IMVI melanoma, with MCF7 breast, with NCI/ADR-RES ovarian and with OVCAR-5 ovarian was over 100 µM each time. Also, the GI50 in the assay on SF-268 CNS is over 100 µM; with SK-MEL-2 melanoma it was over 100 µM; with SK-OV-3 ovarian, over 100 µM; with SR leukemia it was 49.9 µM. Moreover, the TGI in the assay on A549 NSCLC, in the assay with HOP-62 NSCLC, in the assay on LOX IMVI melanoma, in the assay with MCF7 breast, with NCI/ADR-RES ovarian and with OVCAR-5 ovarian was over 100 µM throughout. Further, the TGI with SF-268 CNS, in the assay with SK-MEL-2 melanoma, in the assay with SK-OV-3 ovarian and in the assay on SR leukemia was over 100 µM each time.
On to `CC(Cc1ccc(Cl)cc1Cl)NO` (stereo not given), for which the TGI in the assay on A549 NSCLC, with HOP-62 NSCLC, in the assay on LOX IMVI melanoma, in the assay with MCF7 breast, in the assay with NCI/ADR-RES ovarian and in the assay on OVCAR-5 ovarian was over 100 µM each time. Further, the TGI in the assay with SF-268 CNS, in the assay with SK-MEL-2 melanoma, with SK-OV-3 ovarian and in the assay with SR leukemia was over 100 µM throughout.
Turning to `Nc1nc(N)[n+]([O-])c(N)c1NCO`, the TGI in the assay on A549 NSCLC, in the assay with HOP-62 NSCLC, with LOX IMVI melanoma, in the assay on MCF7 breast, in the assay with NCI/ADR-RES ovarian and with OVCAR-5 ovarian was over 100 µM each time. Besides, the TGI in the assay on SF-268 CNS, in the assay on SK-MEL-2 melanoma, in the assay on SK-OV-3 ovarian and in the assay with SR leukemia was over 100 µM throughout.

(Values after PubChem BioAssay (NCI).)
